The values that follow come from patent US20210388028A1, “GLYCOPEPTIDE DERIVATIVE COMPOUNDS AND USES THEREOF” (INSMED INCORPORATED, priority 2018, published 2021).

Details of data set [1]: species or system Sprague Dawley rats. Conditions: rat, in vivo, inhaled or intranasal, 10 mg/kg. As to the method:
120 h single dose in vivo PK experiments of nebulized inhaled compounds were performed in healthy male Sprague Dawley rats at target body-weight doses of 10 mg/kg (RV40) or 1.5 mg/kg (TLV, RV104, RV106), using a 12-port nose-only chamber (CH Technologies, Westwood, N.J., USA) equipped with an Aerogen Aeroneb Pro mesh nebulizer. The aerosol was provided to chamber at a flow rate of 6 L/min. Lungs were collected, and drug concentrations measured by HPLC-MS/MS.
Chemical modification of the compound to include an additional moiety at R=x was accomplished to improve reduce the compound's predictive hydrophobicity.

Data set [2] concerns gram positive pathogens including S. Aureus methicillin-susceptible and resistant isolates. Nature of the data set: antibacterial activity against gram positive pathogens. It is filed as cell-based.

Consider `CCCCCCCCCCNCCN[C@@]1(C)C[C@H](O[C@H]2[C@H](Oc3c4cc5cc3Oc3ccc(cc3Cl)[C@@H](O)[C@@H](NC(=O)[C@@H](CC(C)C)NC)C(=O)N[C@@H](CC(N)=O)C(=O)N[C@H]5C(=O)N[C@H]3C(=O)N[C@H](C(=O)N[C@H](C(=O)O)c5cc(O)cc(O)c5-c5cc3ccc5O)[C@H](O)c3ccc(c(Cl)c3)O4)O[C@H](CO)[C@@H](O)[C@@H]2O)O[C@@H](C)[C@H]1O` [RV40], for which the “half-life in lung tissue (t1/2)” value in data set [1] was found to be 12.5 days. Moreover, the antibacterial activity entry in data set [2] is “potent antibacterial activity”.
